Measurements reported in patent US20260207570A1, “OPTIMIZED DOSING OF LERIGLITAZONE” (MINORYX THERAPEUTICS S.L., priority 2022, published 2026).
Several values for one entry are separate records, joined by “and”; a condition that tells them apart may be missing. Equal entries are not always repeated. Where two headings read alike, the source gives them in different places.

Columns and labels:
[1] = Phase 1 multiple ascending dose (MAD) pharmacokinetics with CSF collection in healthy volunteers; type: in vivo, human; conditions: for CSF C4h / concentration at 4 h: total; for accumulation RCmax: day 8 vs day 1; for Vd/F: read-out: Vz/F
Method: (§1) Study design: A phase 1, randomized, double blind, placebo-controlled, single-center clinical study in 33 male healthy volunteers (HV) (19-54 years, 63.2-95.7 Kg) was conducted with leriglitazone HCl and divided in two parts: a single ascending dose (SAD) with three dose levels (30, 90 and 270 mg) in fasted conditions, followed with two dose levels (90 and 270 mg) in fed conditions; a multiple ascending dose (MAD) with a double-blind, parallel-design with two dose levels (135 and 270 mg) for 8 days and a separate cohort of subjects in an open-label parallel design with two dose levels (135 and 270 mg) including cerebrospinal fluid (CSF) collection on day 8. In the fasted conditions a fasting period of at least 4 hours was required before obtaining plasma samples. The food effect (FE) was assessed by comparing fasted with fed conditions (dosing after a high-fat breakfast per FDA definition with a calculated caloric content of 918 kcal). In the MAD part (fed) the medication was taken before a normal breakfast. Leriglitazone HCl was supplied by ChemConnection and an oral suspension of leriglitazone (20% w/v kleptose, 2% ethanol in 100 mM phosphate buffer pH=7.8) at 6 mg/ml was used in the study.
(§2) Blood, Urine and CSF sampling: In the SAD, blood samples were drawn at the following time points: pre-dose and 0.25, 0.5, 0.75, 1, 1.5, 2, 2.5, 3, 4, 5, 6, 8, 10, 12, 16, 24, 36, 48, 72, 96 and 120 hours post-dose. Urine was collected at pre-dose (within 12 hours prior to dosing) and over 0-6, 6-12, 12-24, 24-36, 36-48 hours post-dose collection intervals. In the MAD, blood samples were collected on day 1 at pre-dose and 0.25, 0.5, 0.75, 1, 1.5, 2, 2.5, 3, 4, 5, 6, 8, 10, 12, and 16 hours post-dose and at pre-dose and at 4 hours post-dose on day 2 to day 7, and on day 8 at pre-dose and 0.25, 0.5, 0.75, 1, 1.5, 2, 2.5, 3, 4, 5, 6, 8, 10, 12, 16, 24, 36, 48, 72, 96 and 120 hours post-dose. CSF were taken on day −1 and on day 8, at 4 hours post-dose.
(§3) Pharmacokinetic parameter calculation: PK parameters (Cmax, Tmax, t1/2, AUC0-t, CL/F, Vz/F, AUC0-t, RAUC, RCmax) were estimated using non-compartmental analysis (NCA) (Phoenix WinNonlin® Version 6.3).
(§4) Statistical analysis: Descriptive statistics for all relevant PK parameters: n, mean, minimum, median, maximum, geometric mean, and coefficient of variation (CV %); analysis of variance on Cmax and AUC to determine dose proportionality and food effect (FE).
The ratio of unbound leriglitazone concentration in brain to unbound concentration in plasma (Kpu,u; Cb,u/Cp,u) was calculated dividing the unbound CSF Cmax by the unbound plasma Cmax. Fractions unbound in plasma (fu,p) to obtain the unbound Cmax values were already reported. Rodriguez-Pascau, L. et al., Sci. Transl. Med. 13, eabc0555 (2021).

[2] = Phase 1 single ascending dose (SAD) pharmacokinetics in healthy volunteers; type: in vivo, human; conditions: for Ka: estimated; for CL/F: geometric mean (CV %)
Method: as §1, §2, §3, §4

Compound: CC(O)c1ccc(CCOc2ccc(CC3SC(=O)NC3=O)cc2)nc1 (stereo not shown) [Leriglitazone, 5-[[4-[2-[5-(1-hydroxyethyl)pyridin-2-yl]ethoxy]phenyl]methyl]-1,3-thiazolidine-2,4-dione]
- CL/F ([1]; 135 mg MD Day 1, n = 8, geometric mean (CV %)): 1.59 (17.8) L./h
- CSF C4h ([1]; 135 mg MD Day 8, 4 hours post-dose, geometric mean (CV %)): 188 (15.9) ng/mL
- CL/F ([1]; 270 mg MD Day 1, n = 8, geometric mean (CV %)): 1.63 (14.4) L./h
- CSF C4h ([1]; 270 mg MD Day 8, 4 hours post-dose, geometric mean (CV %)): 332 (13.4) ng/mL
- increase of CSF concentration on doubling the dose ([1]; 270 mg vs 135 mg, day 8, 4 hours post-dose): 1.8 fold
- accumulation RCmax ([1]; MAD 135 mg): 1.7
- accumulation RAUC ([1]; MAD 270 mg dose): 1.81
- accumulation RCmax ([1]; MAD 270 mg): 1.7
- time to steady state ([1]; MAD 135 or 270 mg daily, fed): 5 days
- CSF Cmax ([1]; human, 135 mg): 188 ng/mL
- CSF Cmax ([1]; human, 270 mg): 332 ng/mL
- brain penetration ([1]; judged from CSF to plasma concentrations): good
- Kp at 4 h ([1]; male, CSF and plasma (unbound), oral, human, 135 mg, unbound CSF Cmax / unbound plasma Cmax, read-out: Kpu, u based on CSF): 0.55
- Kp ([1]; male, CSF and plasma (unbound), oral, human, 270 mg, unbound CSF Cmax / unbound plasma Cmax, read-out: Kpu, u based on CSF): 0.54
- Kp at 4 h ([1]; male, human, CSF and plasma, oral, 135 mg MD Day 8, geometric mean (CV %), read-out: CSF/Plasma): 0.021
- Kp at 4 h ([1]; male, human, CSF and plasma, oral, 270 mg MD Day 8, geometric mean (CV %), read-out: CSF/Plasma): 0.024
- Kp at 4 h ([1]; male, human, CSF and plasma, oral, day 8, 4 hours post-dose, read-out: total concentrations in CSF as share of total plasma concentrations): 0.022 to 0.025
- concentration at 4 h ([1]; male, human, CSF, oral, 135 mg MD Day 8, 4 hours post-dose, geometric mean (CV %), read-out: CSF C4h): 188 ng/mL
- concentration at 4 h ([1]; male, human, CSF, oral, 270 mg MD Day 8, 4 hours post-dose, geometric mean (CV %), read-out: CSF C4h): 332 ng/mL
- Tmax ([1]; male, human, plasma, oral, 135 mg, 135 mg MD Day 1, n = 8, Median, read-out: Tmax): 3 h
- Vd/F ([1]; male, human, plasma, oral, 135 mg, 135 mg MD Day 1, n = 8, geometric mean (CV %)): 47.1 L
- Cmax ([1]; male, human, plasma, oral, 135 mg, 135 mg MD Day 1, n = 8, plasma total, geometric mean, read-out: Cmax): 5430 ng/mL
- Tmax ([1]; male, human, plasma, oral, 135 mg, 135 mg MD Day 8, n = 8, Median, read-out: Tmax): 4 h
- Vd/F ([1]; male, human, plasma, oral, 135 mg, 135 mg MD Day 8, n = 8, geometric mean (CV %)): 27.7 L
- Cmax ([1]; male, human, plasma, oral, 135 mg, 135 mg MD Day 8, n = 8, plasma total, geometric mean, read-out: Cmax): 9500 ng/mL
- AUC ([1]; male, human, plasma, oral, 135 mg, 135 mg daily, fed, Day 1, read-out: AUC, Observed): 85.1 µg·h/mL
- Cmax ([1]; male, human, plasma, oral, 135 mg, 135 mg daily, fed, Day 1, read-out: Cmax, Observed): 5490 ng/mL
- Tmax ([1]; male, human, plasma, oral, 135 mg, 135 mg daily, fed, Day 1, read-out: Tmax, Observed): 3 h
- AUC ([1]; male, human, plasma, oral, 135 mg, 135 mg daily, fed, Day 8, read-out: AUC, Observed): 145 µg·h/mL
- Cmax ([1]; male, human, plasma, oral, 135 mg, 135 mg daily, fed, Day 8, read-out: Cmax, Observed): 9490 ng/mL
- Tmax ([1]; male, human, plasma, oral, 135 mg, 135 mg daily, fed, Day 8, read-out: Tmax, Observed): 4 h
- AUC ([1]; male, human, plasma, oral, 135 mg, human, 135 mg, read-out: Total plasma AUC): 145 µg·h/mL
- Cmax ([1]; male, human, plasma, oral, 135 mg, human, 135 mg, read-out: Total plasma Cmax): 9490 ng/mL
- Tmax ([1]; male, human, plasma, oral, 270 mg, 270 mg MD Day 1, n = 8, Median, read-out: Tmax): 3 h
- Vd/F ([1]; male, human, plasma, oral, 270 mg, 270 mg MD Day 1, n = 8, geometric mean (CV %)): 52.7 L
- Cmax ([1]; male, human, plasma, oral, 270 mg, 270 mg MD Day 1, n = 8, plasma total, geometric mean, read-out: Cmax): 10000 ng/mL
- Tmax ([1]; male, human, plasma, oral, 270 mg, 270 mg MD Day 8, n = 7, Median, read-out: Tmax): 4 h
- Vd/F ([1]; male, human, plasma, oral, 270 mg, 270 mg MD Day 8, n = 7, geometric mean (CV %)): 29.5 L
- Cmax ([1]; male, human, plasma, oral, 270 mg, 270 mg MD Day 8, n = 7, plasma total, geometric mean, read-out: Cmax): 17000 ng/mL
- AUC ([1]; male, human, plasma, oral, 270 mg, 270 mg daily, fed, Day 1, read-out: AUC, Observed): 165 µg·h/mL
- Cmax ([1]; male, human, plasma, oral, 270 mg, 270 mg daily, fed, Day 1, read-out: Cmax, Observed): 10000 ng/mL
- Tmax ([1]; male, human, plasma, oral, 270 mg, 270 mg daily, fed, Day 1, read-out: Tmax, Observed): 3 h
- AUC ([1]; male, human, plasma, oral, 270 mg, 270 mg daily, fed, Day 8, read-out: AUC, Observed): 299 µg·h/mL
- Cmax ([1]; male, human, plasma, oral, 270 mg, 270 mg daily, fed, Day 8, read-out: Cmax, Observed): 17200 ng/mL
- Tmax ([1]; male, human, plasma, oral, 270 mg, 270 mg daily, fed, Day 8, read-out: Tmax, Observed): 4 h
- AUC ([1]; male, human, plasma, oral, 270 mg, human, 270 mg, read-out: Total plasma AUC): 299 µg·h/mL
- Cmax ([1]; male, human, plasma, oral, 270 mg, human, 270 mg, read-out: Total plasma Cmax): 17200 ng/mL
- concentration at 4 h ([1]; male, human, plasma, oral, 270 mg MD Day 8, 4 hours post-dose, geometric mean (CV %), read-out: Plasma C4h): 14200 ng/mL
- mean CL/F ([1]; phase 1 MAD part day 8): 0.93 L/h
- dose excreted in urine as free analyte ([2]; 48-hour collection period): < 0.4%
- dose excreted in urine as the analyte, mostly in a conjugated state ([2]; 48-hour collection period): 6.5%
- Ka ([2]; SAD 30 mg Fasted): 6.35 (CV: 676%) 1/h
- CL/F ([2]; SAD 30 mg fasted, n = 6): 0.679 (9.0) L/h
- Ka ([2]; SAD 90 mg Fasted): 4.43 (CV: 222%) 1/h
- Ka ([2]; SAD 90 mg Fed): 0.89 1/h and 0.89 (CV: 68%) 1/h
- CL/F ([2]; SAD 90 mg fasted, n = 6): 0.746 (10.1) L/h
- CL/F ([2]; SAD 90 mg fed, n = 3): 0.747 (6.7) L/h
- Ka ([2]; SAD 270 mg Fasted): 1.92 (CV: 75%) 1/h
